Data as given in patent US8927009B2 (AbbVie Inc., priority 2009, dated 2015).
Counter-ions that a name gives are not always drawn.

Experiments:
Type in all cases: physicochemical
[1] = Drug solubility in ternary excipient systems; parameters: key: ✓: vehicle miscible, or drug fully dissolved in vehicle; conditions: 10% salt, 20% free base
From the text: (§1) Solvents evaluated included Labrafil M 1944 CS™, Imwitor 742™, oleic acid, Capmul PG-8™, Capmul PG-12™, Lauroglycol 90™ (propylene glycol monolaurate, available from Gattefossé) and Phosal 53 MCT™. Surfactants evaluated included Tween 80™, Cremophor RH40™, Gelucire 44/14™ (polyoxyethylene glyceryl laurate, available from Gattefossé) and Labrasol™.

[2] = Solubility in lipid solvents and solvent mixtures in ambient conditions; conditions: listed as bis-HCl salt
Protocol: Solubility of ABT-263 parent (free base, crystalline Form I) and ABT-263 bis-HCl salt was tested in a variety of lipid solvents and solvent mixtures in ambient conditions. Trademarked solvents in this study, unless identified hereinabove, are as follows (substantially equivalent products from other manufacturers can be substituted if available): • Miglyol 810™ of Sasol: caprylic/capric triglycerides; • Capmul MCM™ of Abitec: glyceryl caprylate/caprate; • Captex 300™ of Abitec: caprylic/capric triglycerides; • Labrafil M 2125 CS™ of Gattefossé: polyoxyethylene glyceryl linoleate; • Tween 20™ of Uniqema: polysorbate 20; • Labrasol™ of Gattefossé: polyoxyethylene glyceryl caprylate/caprate; • Cremophor RH40™: polyoxyethyene (40) hydrogenated castor oil. “PE-91” is Phosal 53 MCT™+ethanol, 9:1 by volume. “LOT-343” is Labrafil M 1944 CS™+oleic acid+Tween 80™, 30:40:30 by weight.
In some cases, indicated in Table 4 by an asterisk (*), solubility was initially high but precipitation occurred upon standing.

[3] = Drug solubility in ternary excipient systems; parameters: key: ✓: vehicle miscible, or drug fully dissolved in vehicle; x: vehicle immiscible or miscible but turbid, or residual solids present (due to undissolved drug or precipitation); conditions: 10% salt, 20% free base
From the text: as §1

ABT-263 solubility ([1]; Capmul PG-8/Labrafil M 1944 CS/Labrasol (C8LL) 40:40:20 % by weight): ✓
ABT-263 solubility ([1]; Capmul PG-12/Labrafil M 1944 CS/Tween 80 (C12LT) 30:40:30 % by weight): ✓
ABT-263 solubility ([1]; Capmul PG-12/Labrafil M 1944 CS/Tween 80 (C12LT) 35:40:25 % by weight): ✓
ABT-263 solubility ([1]; Capmul PG-12/Labrafil M 1944 CS/Tween 80 (C12LT) 40:30:30 % by weight): ✓
ABT-263 solubility ([1]; Capmul PG-12/Labrafil M 1944 CS/Tween 80 (C12LT) 45:30:25 % by weight): ✓
ABT-263 solubility ([1]; Imwitor 742/Labrafil M 1944 CS/Cremophor RH40 (ILC) 40:40:20 % by weight, listed as salt): ✓
ABT-263 solubility ([1]; Imwitor 742/Labrafil M 1944 CS/Cremophor RH40 (ILC) 50:30:20 % by weight, listed as salt): ✓
ABT-263 solubility ([1]; Imwitor 742/Labrafil M 1944 CS/Cremophor RH40 (ILC) 50:40:10 % by weight, listed as salt): ✓
ABT-263 solubility ([1]; Imwitor 742/Labrafil M 1944 CS/Cremophor RH40 (ILC) 60:30:10 % by weight, listed as salt): ✓
ABT-263 solubility ([1]; Imwitor 742/Labrafil M 1944 CS/Labrasol (ILL) 40:40:20 % by weight, listed as salt): ✓
ABT-263 solubility ([1]; Imwitor 742/Labrafil M 1944 CS/Labrasol (ILL) 50:30:20 % by weight, listed as salt): ✓
ABT-263 solubility ([1]; Imwitor 742/Labrafil M 1944 CS/Labrasol (ILL) 50:40:10 % by weight, listed as salt): ✓
ABT-263 solubility ([1]; Imwitor 742/Labrafil M 1944 CS/Labrasol (ILL) 60:30:10 % by weight, listed as salt): ✓
ABT-263 solubility ([1]; Labrafil M 1944 CS/Imwitor 742/Tween 80 (LIT) 30:40:30 % by weight, listed as salt): ✓
ABT-263 solubility ([1]; Labrafil M 1944 CS/Imwitor 742/Tween 80 (LIT) 30:45:25 % by weight, listed as salt): ✓
ABT-263 solubility ([1]; Labrafil M 1944 CS/Imwitor 742/Tween 80 (LIT) 40:30:30 % by weight, listed as salt): ✓
ABT-263 solubility ([1]; Labrafil M 1944 CS/Imwitor 742/Tween 80 (LIT) 40:35:25 % by weight, listed as salt): ✓
ABT-263 solubility ([1]; Labrafil M 1944 CS/oleic acid/Cremophor RH40 (LOC) 30:60:10 % by weight): ✓
ABT-263 solubility ([1]; Labrafil M 1944 CS/oleic acid/Cremophor RH40 (LOC) 40:50:10 % by weight): ✓
ABT-263 solubility ([1]; Labrafil M 1944 CS/oleic acid/Tween 80 (LOT) 30:40:30 % by weight): ✓
ABT-263 solubility ([1]; Labrafil M 1944 CS/oleic acid/Tween 80 (LOT) 30:45:25 % by weight): ✓
ABT-263 solubility ([1]; Labrafil M 1944 CS/oleic acid/Tween 80 (LOT) 40:30:30 % by weight): ✓
ABT-263 solubility ([1]; Labrafil M 1944 CS/oleic acid/Tween 80 (LOT) 40:35:25 % by weight): ✓
ABT-263 solubility ([1]; Lauroglycol 90/Labrafil M 1944 CS/Cremophor RH40 (LLC) 45:30:25 % by weight): ✓
ABT-263 solubility ([1]; Lauroglycol 90/Labrafil M 1944 CS/Labrasol (LLL) 40:40:20 % by weight): ✓
ABT-263 solubility ([1]; Lauroglycol 90/Labrafil M 1944 CS/Labrasol (LLL) 50:30:20 % by weight): ✓
ABT-263 solubility ([1]; Lauroglycol 90/Labrafil M 1944 CS/Labrasol (LLL) 50:40:10 % by weight, listed as salt): ✓
ABT-263 solubility ([1]; Lauroglycol 90/Labrafil M 1944 CS/Labrasol (LLL) 60:30:10 % by weight, listed as salt): ✓
ABT-263 solubility ([1]; oleic acid/Labrafil M 1944 CS/Labrasol (OLL) 40:40:20 % by weight): ✓
ABT-263 solubility ([1]; oleic acid/Labrafil M 1944 CS/Labrasol (OLL) 50:30:20 % by weight): ✓
ABT-263 solubility ([1]; oleic acid/Labrafil M 1944 CS/Labrasol (OLL) 50:40:10 % by weight): ✓
ABT-263 solubility ([1]; oleic acid/Labrafil M 1944 CS/Labrasol (OLL) 60:30:10 % by weight): ✓
Solubility ([2]; in Capmul PG-8, ambient conditions): <43 mg/g
Solubility ([2]; in Capmul PG-12, ambient conditions): <39 mg/g
Solubility ([2]; in Captex 300, ambient conditions): <52 mg/g
Solubility ([2]; in Labrafil M 1944 CS, ambient conditions): <45 mg/g
Solubility ([2]; in Labrafil M 2125 CS, ambient conditions): <44 mg/g
Solubility ([2]; in PE-91 (Phosal 53 MCT + ethanol 9:1 by volume), ambient conditions): 89 mg/g
Solubility ([2]; in poloxamer 124, ambient conditions): <41 mg/g
Solubility ([2]; in sesame oil, ambient conditions): <80 mg/g
ABT-263 solubility ([3]; Capmul PG-8/Labrafil M 1944 CS/Cremophor RH40 (C8LC) 40:40:20 % by weight): x
ABT-263 solubility ([3]; Capmul PG-8/Labrafil M 1944 CS/Cremophor RH40 (C8LC) 50:30:20 % by weight): x
ABT-263 solubility ([3]; Capmul PG-8/Labrafil M 1944 CS/Cremophor RH40 (C8LC) 50:40:10 % by weight): x
ABT-263 solubility ([3]; Capmul PG-8/Labrafil M 1944 CS/Cremophor RH40 (C8LC) 60:30:10 % by weight): x
ABT-263 solubility ([3]; Capmul PG-8/Labrafil M 1944 CS/Labrasol (C8LL) 50:30:20 % by weight): x
ABT-263 solubility ([3]; Capmul PG-8/Labrafil M 1944 CS/Labrasol (C8LL) 50:40:10 % by weight): x
ABT-263 solubility ([3]; Capmul PG-8/Labrafil M 1944 CS/Labrasol (C8LL) 60:30:10 % by weight): x
ABT-263 solubility ([3]; Capmul PG-8/Labrafil M 1944 CS/Tween 80 (C8LT) 30:40:30 % by weight): x
ABT-263 solubility ([3]; Capmul PG-8/Labrafil M 1944 CS/Tween 80 (C8LT) 35:40:25 % by weight): x
ABT-263 solubility ([3]; Capmul PG-8/Labrafil M 1944 CS/Tween 80 (C8LT) 40:30:30 % by weight): x
ABT-263 solubility ([3]; Capmul PG-8/Labrafil M 1944 CS/Tween 80 (C8LT) 45:30:25 % by weight): x
Structure (SMILES): CC1(C)CCC(c2ccc(Cl)cc2)=C(CN2CCN(c3ccc(C(=O)NS(=O)(=O)c4ccc(N[C@H](CCN5CCOCC5)CSc5ccccc5)c(S(=O)(=O)C(F)(F)F)c4)cc3)CC2)C1 [ABT-263 bis-HCl]
